Columns and labels:
Estrogen receptor [1] = target: T1, Estrogen receptor (Homo sapiens, UniProt P03372); experiment: In vitro inhibition of [3H]17-beta-estradiol binding to human estrogen receptor alpha
T1 sequence (P03372 whole entry): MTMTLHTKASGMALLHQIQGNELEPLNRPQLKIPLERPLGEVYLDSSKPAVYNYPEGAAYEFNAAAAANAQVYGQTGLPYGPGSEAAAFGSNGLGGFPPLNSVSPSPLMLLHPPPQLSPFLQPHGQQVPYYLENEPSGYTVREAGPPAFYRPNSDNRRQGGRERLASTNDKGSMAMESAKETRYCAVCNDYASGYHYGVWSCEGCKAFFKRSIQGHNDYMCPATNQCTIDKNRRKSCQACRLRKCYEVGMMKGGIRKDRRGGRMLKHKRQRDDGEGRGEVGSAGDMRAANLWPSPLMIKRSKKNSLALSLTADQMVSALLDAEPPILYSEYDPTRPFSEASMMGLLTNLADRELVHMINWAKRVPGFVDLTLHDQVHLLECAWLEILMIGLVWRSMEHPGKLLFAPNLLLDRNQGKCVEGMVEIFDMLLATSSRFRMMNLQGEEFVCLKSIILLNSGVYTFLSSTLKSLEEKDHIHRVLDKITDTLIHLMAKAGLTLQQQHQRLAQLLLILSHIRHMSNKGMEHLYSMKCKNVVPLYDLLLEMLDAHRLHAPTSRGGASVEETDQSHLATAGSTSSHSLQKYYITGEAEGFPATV

Estrogen receptor [2] = target: T1, Estrogen receptor; experiment: In vitro antagonist effect on estrogen receptor alpha transcriptional activation in MCF-7 cells against 10 pM 17-beta-estradiol
Estrogen receptor beta = Estrogen receptor beta (Homo sapiens, UniProt Q92731)
Estrogen receptor beta, sequence (Q92731 whole entry): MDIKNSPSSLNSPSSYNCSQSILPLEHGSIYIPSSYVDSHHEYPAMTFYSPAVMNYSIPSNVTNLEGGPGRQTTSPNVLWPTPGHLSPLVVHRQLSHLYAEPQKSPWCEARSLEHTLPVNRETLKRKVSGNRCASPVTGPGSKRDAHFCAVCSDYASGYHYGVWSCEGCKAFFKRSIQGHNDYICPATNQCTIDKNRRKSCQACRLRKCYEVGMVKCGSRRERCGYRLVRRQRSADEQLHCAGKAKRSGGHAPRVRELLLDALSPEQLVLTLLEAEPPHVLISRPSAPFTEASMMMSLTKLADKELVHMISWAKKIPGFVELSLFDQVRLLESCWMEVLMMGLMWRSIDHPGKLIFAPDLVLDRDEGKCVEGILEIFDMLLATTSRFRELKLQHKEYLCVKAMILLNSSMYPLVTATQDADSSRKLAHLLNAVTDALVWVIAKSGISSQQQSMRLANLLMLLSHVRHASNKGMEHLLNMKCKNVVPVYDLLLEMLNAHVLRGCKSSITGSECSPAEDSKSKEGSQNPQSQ
Description: In vitro inhibitory concentration against [3H]17-beta-estradiol binding to human estrogen receptor 2

Cc1c(-c2ccc(O)cc2)n(CCCCCCN2CCCC2)c2ccc(O)cc12
IC50 (Estrogen receptor [1]): 25 nM
IC50 (Estrogen receptor [2]): 69 nM
IC50 (Estrogen receptor beta): 242 nM

Cc1c(-c2ccc(O)cc2)n(Cc2ccc(OCCN3CCCCC3)cc2)c2ccc(O)cc12 [PIPENDOXIFENE]
IC50 (Estrogen receptor beta): 40 nM

Source: ChEMBL document CHEMBL1134479 (J Med Chem, 2001)
